Drawing on ChEMBL document CHEMBL4420081, “Novel benzylamino substituted quinazolines and derivatives as sos1 inhibitors” (2018), this text covers inhibition of growth and inhibition for four compounds.

The source made the active and inactive calls. No cut-off for these calls is given here.

The test system of test [1] is NCI-H1792. Nature of the test: Growth inhibition of human NCI-H1792 cells grown under 3D anchorage-independent soft-agar conditions at 3.7 nM incubated for 14 days by alamar blue dye based assay relative to control. As to conditions: NCI-H1792, 336 h, read-out: GI. It counts as functional. For orientation: The colour change of resazurin is a common sign of viable cells or microbes.

Test [2] concerns NCI-H1792. As to the kind of experiment: Growth inhibition of human NCI-H1792 cells grown under 3D anchorage-independent soft-agar conditions at 1.23 nM incubated for 14 days by alamar blue dye based assay relative to control. It counts as functional. Particulars: NCI-H1792, 336 h, read-out: GI.
Test [3] relates to A549. As to the kind of experiment: Growth inhibition of human A549 cells grown under 3D anchorage-independent soft-agar conditions at 3.7 nM incubated for 14 days by alamar blue dye based assay relative to control. It counts as functional. As to conditions: A549, 336 h, read-out: GI.
In test [4] the test system is A549. As to the kind of experiment: Growth inhibition of human A549 cells grown under 3D anchorage-independent soft-agar conditions at 33.3 nM incubated for 14 days by alamar blue dye based assay relative to control. As to conditions: A549, 336 h, read-out: GI. It counts as functional.
The test system of test [5] is A549. Nature of the test: Growth inhibition of human A549 cells grown under 3D anchorage-independent soft-agar conditions at 100 nM incubated for 14 days by alamar blue dye based assay relative to control. It counts as functional. As to conditions: A549, 336 h, read-out: GI.
Test [6] relates to A549. Nature of the test: Growth inhibition of human A549 cells grown under 3D anchorage-independent soft-agar conditions at 1.23 nM incubated for 14 days by alamar blue dye based assay relative to control. It counts as functional. As to conditions: A549, 336 h, read-out: GI.
Test [7] deals with A549. Nature of the test: Growth inhibition of human A549 cells grown under 3D anchorage-independent soft-agar conditions at 11.1 nM incubated for 14 days by alamar blue dye based assay relative to control. It counts as functional. Particulars: A549, 336 h, read-out: GI.
Test [8] concerns NCI-H1792. As to the kind of experiment: Growth inhibition of human NCI-H1792 cells grown under 3D anchorage-independent soft-agar conditions at 11.1 nM incubated for 14 days by alamar blue dye based assay relative to control. It counts as functional. As to conditions: NCI-H1792, 336 h, read-out: GI.
Test [9] has as its system NCI-H1792. As to the kind of experiment: Growth inhibition of human NCI-H1792 cells grown under 3D anchorage-independent soft-agar conditions at 100 nM incubated for 14 days by alamar blue dye based assay relative to control. It counts as functional. Particulars: NCI-H1792, 336 h, read-out: GI.
Test [10] has as its system MIA PaCa-2. Nature of the test: Antitumor activity against human MIAPaCa2 cells grown under 3D anchorage-independent soft-agar conditions at xenografted in BomTacNMRI-Foxn1 nu mouse assessed as inhibition of tumor regression at 10 mg/kg, iv dosed in q7d regime relative to control. It counts as functional, organism-based. On the technique in general: Xenograft models place foreign cells or tissue in a host animal.

Test [11] has as its system NCI-H1792. As to the kind of experiment: Growth inhibition of human NCI-H1792 cells grown under 3D anchorage-independent soft-agar conditions at 33.3 nM incubated for 14 days by alamar blue dye based assay relative to control. It counts as functional. As to conditions: NCI-H1792, 336 h, read-out: GI.
For test [12], the system named is NCI-H1792. As to the kind of experiment: Growth inhibition of human NCI-H1792 cells grown under 3D anchorage-independent soft-agar conditions at 123 nM incubated for 14 days by alamar blue dye based assay relative to control. It counts as functional. Particulars: NCI-H1792, 336 h, read-out: GI.
In test [13] the test system is NCI-H1792. Nature of the test: Growth inhibition of human NCI-H1792 cells grown under 3D anchorage-independent soft-agar conditions at 370 nM incubated for 14 days by alamar blue dye based assay relative to control. It counts as functional. As to conditions: NCI-H1792, 336 h, read-out: GI.
Test [14] concerns SW900. Nature of the test: Growth inhibition of human SW900 cells grown under 3D anchorage-independent soft-agar conditions at 1110 nM incubated for 14 days by alamar blue dye based assay relative to control. It counts as functional. As to conditions: SW900, 336 h, read-out: GI.
Test [15] concerns NCI-H1792. Nature of the test: Growth inhibition of human NCI-H1792 cells grown under 3D anchorage-independent soft-agar conditions at 164 nM incubated for 14 days by alamar blue dye based assay relative to control. It counts as functional. As to conditions: NCI-H1792, 336 h, read-out: GI.
Test [16] relates to SW900. Nature of the test: Growth inhibition of human SW900 cells grown under 3D anchorage-independent soft-agar conditions at 123 nM incubated for 14 days by alamar blue dye based assay relative to control. It counts as functional. As to conditions: SW900, 336 h, read-out: GI.
The subject of test [17] is SW900. Nature of the test: Growth inhibition of human SW900 cells grown under 3D anchorage-independent soft-agar conditions at 370 nM incubated for 14 days by alamar blue dye based assay relative to control. It counts as functional. Particulars: SW900, 336 h, read-out: GI.
Test [18] deals with NCI-H1792. Nature of the test: Growth inhibition of human NCI-H1792 cells grown under 3D anchorage-independent soft-agar conditions at 3330 nM incubated for 14 days by alamar blue dye based assay relative to control. It counts as functional. Particulars: NCI-H1792, 336 h, read-out: GI.
Test [19] concerns SW900. As to the kind of experiment: Growth inhibition of human SW900 cells grown under 3D anchorage-independent soft-agar conditions at 3330 nM incubated for 14 days by alamar blue dye based assay relative to control. As to conditions: SW900, 336 h, read-out: GI. It counts as functional.
Test [20] has as its system SW900. Nature of the test: Growth inhibition of human SW900 cells grown under 3D anchorage-independent soft-agar conditions at 164 nM incubated for 14 days by alamar blue dye based assay relative to control. It counts as functional. Particulars: SW900, 336 h, read-out: GI.
For test [21], the system named is NCI-H1792. As to the kind of experiment: Growth inhibition of human NCI-H1792 cells grown under 3D anchorage-independent soft-agar conditions at 1110 nM incubated for 14 days by alamar blue dye based assay relative to control. It counts as functional. As to conditions: NCI-H1792, 336 h, read-out: GI.
For test [22], the system named is MIA PaCa-2. As to the kind of experiment: Antitumor activity against human MIAPaCa2 cells grown under 3D anchorage-independent soft-agar conditions at xenografted in BomTacNMRI-Foxn1 nu mouse assessed as inhibition of tumor regression at 0.125 mg/kg, po BID relative to control. It counts as functional, organism-based.
The target in test [23] is T1, Mitogen-activated protein kinase; ERK1/ERK2 (Homo sapiens) (UniProt P27361+P28482). As to the kind of experiment: Inhibition of ERK1/2 phosphorylation at Thr202/Tyr204 residues in human MIAPaCa2 cells grown under 3D anchorage-independent soft-agar conditions at 50 nM incubated for 2 to 8 hrs by Western blotting analysis relative to control. It counts as cell-based. Background: Immunoblotting shows a protein as a band on a membrane.

In test [24] the target is T1, Mitogen-activated protein kinase; ERK1/ERK2 (Homo sapiens). Nature of the test: Inhibition of ERK1/2 phosphorylation in human MIAPaCa2 cells grown under 3D anchorage-independent soft-agar conditions at assessed as increase in MEK1/2 phosphorylation at Ser 217/221 residues at 25 nM incubated for 2 to 8 hrs by Western blotting analysis. It counts as cell-based.
For test [25], the system named is MIA PaCa-2. As to the kind of experiment: Antitumor activity against human MIAPaCa2 cells grown under 3D anchorage-independent soft-agar conditions at xenografted in BomTacNMRI-Foxn1 nu mouse assessed as inhibition of tumor regression at 0.05 mg/kg, po BID relative to control. It counts as functional, organism-based.
Test [26] deals with NCI-H2122. Nature of the test: Growth inhibition of human NCI-H2122 cells grown under 3D anchorage-independent soft-agar conditions at 3330 nM incubated for 14 days by alamar blue dye based assay relative to control. It counts as functional. Particulars: NCI-H2122, 336 h, read-out: GI.
Test [27] concerns NCI-H2122. As to the kind of experiment: Growth inhibition of human NCI-H2122 cells grown under 3D anchorage-independent soft-agar conditions at 164 nM incubated for 14 days by alamar blue dye based assay relative to control. It counts as functional. As to conditions: NCI-H2122, 336 h, read-out: GI.
Test [28] deals with NCI-H2122. Nature of the test: Growth inhibition of human NCI-H2122 cells grown under 3D anchorage-independent soft-agar conditions at 1110 nM incubated for 14 days by alamar blue dye based assay relative to control. As to conditions: NCI-H2122, 336 h, read-out: GI. It counts as functional.
The test system of test [29] is NCI-H2122. Nature of the test: Growth inhibition of human NCI-H2122 cells grown under 3D anchorage-independent soft-agar conditions at 370 nM incubated for 14 days by alamar blue dye based assay relative to control. It counts as functional. Particulars: NCI-H2122, 336 h, read-out: GI.
In test [30] the test system is NCI-H2122. Nature of the test: Growth inhibition of human NCI-H2122 cells grown under 3D anchorage-independent soft-agar conditions at 123 nM incubated for 14 days by alamar blue dye based assay relative to control. It counts as functional. As to conditions: NCI-H2122, 336 h, read-out: GI.

T1 sequence (P27361 whole entry, looked up): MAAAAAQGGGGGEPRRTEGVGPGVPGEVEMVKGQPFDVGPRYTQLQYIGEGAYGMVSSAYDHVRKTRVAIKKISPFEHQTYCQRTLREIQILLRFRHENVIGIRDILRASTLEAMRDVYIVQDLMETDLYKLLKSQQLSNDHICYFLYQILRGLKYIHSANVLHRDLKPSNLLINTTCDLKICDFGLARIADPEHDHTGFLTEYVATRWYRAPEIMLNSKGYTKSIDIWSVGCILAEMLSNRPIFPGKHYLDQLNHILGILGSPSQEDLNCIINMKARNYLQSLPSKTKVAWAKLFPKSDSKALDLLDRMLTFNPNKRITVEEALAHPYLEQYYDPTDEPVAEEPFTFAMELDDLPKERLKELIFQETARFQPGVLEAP
T1 sequence (P28482 whole entry, looked up): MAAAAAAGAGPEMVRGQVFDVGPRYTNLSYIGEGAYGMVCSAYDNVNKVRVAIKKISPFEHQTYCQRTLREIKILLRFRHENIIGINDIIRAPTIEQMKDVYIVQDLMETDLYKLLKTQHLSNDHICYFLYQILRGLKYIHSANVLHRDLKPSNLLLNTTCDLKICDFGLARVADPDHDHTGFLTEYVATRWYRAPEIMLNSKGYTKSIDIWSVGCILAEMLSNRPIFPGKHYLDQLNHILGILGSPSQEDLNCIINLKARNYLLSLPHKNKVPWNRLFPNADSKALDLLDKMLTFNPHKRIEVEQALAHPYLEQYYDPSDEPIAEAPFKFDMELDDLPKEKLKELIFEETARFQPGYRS

As to `CC(=O)O[C@H]1C(=O)[C@@]2(C)[C@H]([C@H](OC(=O)c3ccccc3)[C@]3(O)C[C@H](OC(=O)[C@H](O)[C@@H](NC(=O)c4ccccc4)c4ccccc4)C(C)=C1C3(C)C)[C@]1(OC(C)=O)CO[C@@H]1C[C@@H]2O` [PACLITAXEL], the figures for the inhibition of growth at 0.0037 µM in test [1] and in test [3] were 19% and 54%, respectively. Also, the inhibition of growth at 0.00123 µM in [2] stood at 7%; in test [6], 12%. In addition, the values for the inhibition of growth at 0.0333 µM in test [4] and in test [11] were 97% and 96%, respectively. The inhibition of growth at 0.1 µM in test [5] was 114%; in test [9] it was 183%. The inhibition of growth at 0.0111 µM in test [7] amounted to 86%; in test [8], 66%. In addition, the inhibition – broadly, how much of the control response was suppressed – in test [10] is “inactive”.

Take `COC(=O)c1ccc2c(c1)NC(=O)/C2=C(\Nc1ccc(N(C)C(=O)CN2CCN(C)CC2)cc1)c1ccccc1` [NINTEDANIB]: the inhibition of growth at 0.123 µM in [12] is 1%; in test [16], -39%. Also, the values for the inhibition of growth at 0.37 µM in [13] and in test [17] were 7% and -37%, respectively. Besides, the inhibition of growth at 1.11 µM in test [14] is -18%; in test [21] it was 26%. The inhibition of growth at 0.164 µM is 186% in test [15] and 199% in test [20]. Besides, the inhibition of growth at 3.33 µM in [18] worked out at 86%; in test [19], 19%.

Regarding `CC(=O)Nc1cccc(-n2c(=O)n(C3CC3)c(=O)c3c(Nc4ccc(I)cc4F)n(C)c(=O)c(C)c32)c1`, the inhibition entry in test [22] and in test [25] was “inactive” throughout. The same compound showed an inhibition in [23] of 65 to 75%. Moreover, the inhibition result in [24] is “Active”.

On to `CCN1CCN(Cc2ccc(Nc3ncc(F)c(-c4cc(F)c5nc(C)n(C(C)C)c5c4)n3)nc2)CC1` [ABEMACICLIB], for which the inhibition of growth at 3.33 µM in test [26] came out at 81%. In addition, in [27], the inhibition of growth at 0.164 µM was determined as 103%. In addition, in test [28], the inhibition of growth at 1.11 µM worked out at 91%. Besides, the inhibition of growth at 0.37 µM in test [29] stood at 73%. In test [30], the inhibition of growth at 0.123 µM came out at 10%.
